According to publication PMC12948427 (The Journal of Clinical Investigation, 2025):
Values joined by “and” are separate entries in the source; they are usually repeats but may differ in a detail not shown here. Equal values may be shown once. Read-outs that look alike come from different tables or passages of the source. Ends that are not written are not given here.

How the values were obtained:
[1] = molecular target: hHGS 1-390-6 × HIS protein (Homo sapiens, UniProt O14964); test: SPR binding of immobilized M peptides to HGS; conditions: without RTB; read-out: KD, binding affinity of peptide with HGS (SPR)
[2] = system: 17Cl-1 cells
[3] = system: Vero E6 cells
[4] = system: Calu-3 cells
[5] = in vitro; conditions: mouse, 17Cl-1 cells, cell viability, Figure S7E
[6] = in vitro; conditions: Vero E6 cells, cell viability, Figure S7F
[7] = in vitro; conditions: human, Calu-3 cells, cell viability, Figure S7G

Sequence of hHGS 1-390-6 × HIS protein (O14964 1-390): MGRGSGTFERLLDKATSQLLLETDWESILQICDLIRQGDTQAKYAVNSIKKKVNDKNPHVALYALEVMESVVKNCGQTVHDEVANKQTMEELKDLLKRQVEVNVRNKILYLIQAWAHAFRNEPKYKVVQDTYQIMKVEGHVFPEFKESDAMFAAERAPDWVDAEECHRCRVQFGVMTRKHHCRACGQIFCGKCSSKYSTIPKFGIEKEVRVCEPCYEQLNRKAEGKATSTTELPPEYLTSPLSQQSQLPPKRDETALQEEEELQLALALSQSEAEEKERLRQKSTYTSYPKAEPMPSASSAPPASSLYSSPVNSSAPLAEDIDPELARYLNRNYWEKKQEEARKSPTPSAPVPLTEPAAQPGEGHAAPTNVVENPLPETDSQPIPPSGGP

## GRKKRRQRRRPPQESELVIGAVILR [M146]
[1]
  Kd: 5.73 nM
[2]; 17Cl-1, up to 10^4 nM
  cytotoxicity (CCK-8): no significant cytotoxicity
[2]; peptide concentration 1000
  cell viability, Figure S7E: 99.2599 and 92.2943
[2]; peptide concentration 4000
  cell viability, Figure S7E: 104.049 and 106.226
[2]; peptide concentration 8000
  cell viability, Figure S7E: 108.838
[2]; peptide concentration 10000
  cell viability, Figure S7E: 97.5185 and 100.566
[2]; peptide concentration 20000
  cell viability, Figure S7E: 112.32 and 104.049
[2]; peptide concentration 40000
  cell viability, Figure S7E: 96.2125 and 97.0832
[2]; peptide concentration 60000
  cell viability, Figure S7E: 82.2812 and 103.613 and 98.3892
[2]; peptide concentration 80000
  cell viability, Figure S7E: 90.5529
[2]; peptide concentration 100000
  cell viability, Figure S7E: 97.0832 and 87.5054
[2]; peptide concentration 200000
  cell viability, Figure S7E: 89.6822 and 71.8328
[3]; Vero E6, up to 10^4 nM
  cytotoxicity (CCK-8): no significant cytotoxicity
[3]; peptide concentration 2000
  cell viability, Figure S7F: 100.769 and 98.8462
[3]; peptide concentration 10000
  cell viability, Figure S7F: 100.769 and 99.2308
[3]; peptide concentration 20000
  cell viability, Figure S7F: 100 and 96.5385
[3]; peptide concentration 40000
  cell viability, Figure S7F: 96.9231 and 96.1538
[3]; peptide concentration 80000
  cell viability, Figure S7F: 86.9231
[3]; peptide concentration 120000
  cell viability, Figure S7F: 92.3077
[3]; peptide concentration 160000
  cell viability, Figure S7F: 75.7692 and 76.9231
[3]; peptide concentration 200000
  cell viability, Figure S7F: 78.4615 and 78.8462
[3]; peptide concentration 400000
  cell viability, Figure S7F: 21.7308 and 21.1538
[3]; peptide concentration 800000
  cell viability, Figure S7F: 13.7308 and 14.2308
[3]; peptide concentration 1200000
  cell viability, Figure S7F: 13.4615 and 14.1154
[3]; peptide concentration 1600000
  cell viability, Figure S7F: 13.0385 and 11.8077
[4]; Calu-3, up to 10^4 nM
  cytotoxicity (CCK-8): no significant cytotoxicity
[4]; peptide concentration 2000
  cell viability, Figure S7G: 95.941 and 95.203
[4]; peptide concentration 10000
  cell viability, Figure S7G: 97.048 and 96.679
[4]; peptide concentration 20000
  cell viability, Figure S7G: 96.679
[4]; peptide concentration 40000
  cell viability, Figure S7G: 96.31 and 87.4539
[4]; peptide concentration 80000
  cell viability, Figure S7G: 94.0959 and 97.048
[4]; peptide concentration 120000
  cell viability, Figure S7G: 77.1218 and 97.786 and 96.31
[4]; peptide concentration 160000
  cell viability, Figure S7G: 66.0517 and 74.9077
[4]; peptide concentration 200000
  cell viability, Figure S7G: 81.9188 and 68.2657
[4]; peptide concentration 400000
  cell viability, Figure S7G: 25.2399 and 16.7897
[4]; peptide concentration 800000
  cell viability, Figure S7G: 14.4649
[4]; peptide concentration 1200000
  cell viability, Figure S7G: 11.5867 and 10.5535
[4]; peptide concentration 1600000
  cell viability, Figure S7G: 13.7638 and 14.6125
[5]; peptide concentration 1000
  viability at 24 h: 99.7%
[5]; peptide concentration 4000
  viability at 24 h: 103%
[5]; peptide concentration 8000
  viability at 24 h: 95.8%
[5]; peptide concentration 10000
  viability at 24 h: 107%
[5]; peptide concentration 20000
  viability at 24 h: 92.7%
[5]; peptide concentration 40000
  viability at 24 h: 91%
[5]; peptide concentration 80000
  viability at 24 h: 71.4%
[5]; peptide concentration 100000
  viability at 24 h: 84.5%
[5]; peptide concentration 200000
  viability at 24 h: 84%
[6]; peptide concentration 2000
  viability at 24 h: 98.5%
[6]; peptide concentration 10000
  viability at 24 h: 97.7%
[6]; peptide concentration 20000
  viability at 24 h: 94.2%
[6]; peptide concentration 40000
  viability at 24 h: 93.1%
[6]; peptide concentration 80000
  viability at 24 h: 91.9%
[6]; peptide concentration 120000
  viability at 24 h: 88.8%
[6]; peptide concentration 160000
  viability at 24 h: 80.8%
[6]; peptide concentration 200000
  viability at 24 h: 70.8%
[6]; peptide concentration 400000
  viability at 24 h: 20%
[6]; peptide concentration 800000
  viability at 24 h: 12%
[6]; peptide concentration 1200000
  viability at 24 h: 11.4%
[6]; peptide concentration 1600000
  viability at 24 h: 14.5%
[7]; peptide concentration 2000
  viability at 24 h: 83.8%
[7]; peptide concentration 10000
  viability at 24 h: 95.2%
[7]; peptide concentration 20000
  viability at 24 h: 94.8%
[7]; peptide concentration 40000
  viability at 24 h: 93.7%
[7]; peptide concentration 80000
  viability at 24 h: 92.6%
[7]; peptide concentration 160000
  viability at 24 h: 85.6%
[7]; peptide concentration 200000
  viability at 24 h: 83%
[7]; peptide concentration 400000
  viability at 24 h: 24.4%
[7]; peptide concentration 800000
  viability at 24 h: 13%
[7]; peptide concentration 1200000
  viability at 24 h: 11%
[7]; peptide concentration 1600000
  viability at 24 h: 11.7%
